# Data published in PMC6749389, “Synthesis and In Vitro Anti-Toxoplasma gondii Activity of Novel Thiazolidin-4-one Derivatives” (Molecules, 2019).
# What was measured:
# [1] = Cytotoxic assay (MTT, ISO 10993-5:2009(E)), 24 h treatment; type: cell-based; settings: L929 mouse fibroblast cells, L929 mouse fibroblasts, values above highest tested concentration extrapolated
# Method: The L929 mouse fibroblast (ATTC® CCL-1™, Manassas, VA, USA) were culturing according to the ATCC product sheet. […] The cell viability assay were performed precisely according to international standards (ISO 10993-5:2009(E)), using the tetrazolium salt [3-(4,5-dimethylthiazol-2-yl)-2,5-diphenyltetrazolium bromide] (MTT, Sigma-Aldrich) and mouse fibroblasts L929 cells. Cells (1 × 10^4 per well) were treated 24 h with compounds or drug in different concentration range. The optical density at 570 nm on the ELISA reader (Multiskan EX, Labsystems, Vienna, VA, USA), was read. The results were expressed as a percentage of viability compared to untreated cells. […] The CC30/CC50 represents the concentration of tested compounds or drugs that was required for 30% or 50% cells proliferation inhibition in vitro. According to the previously mentioned ISO 10993-5:2009(E) norm, the CC30 value is recognized as non-cytotoxic concentration for the cell line. All experiments were performed in triplicate.
# [2] = Solubility under the protocol conditions; type: physicochemical; settings: compounds dissolved in DMSO and diluted in medium
# Method: Among the 43 compounds tested derivatives 81, 96, 97, 100–104 were insoluble under the protocol conditions and, consequently, they were eliminated from further experiments.
# Compounds were dissolved in dimethyl sulfoxide (DMSO, Sigma-Aldrich, St. Louis, MO, USA) to 125 mM. The final concentration of DMSO in the compounds dilutions was not higher than 1.00%. Drug, sulfadiazine [4-amino-N-(2-pyrimidinyl)benzenesulfonamide] (S8626, Sigma-Aldrich) was dissolved in 1M sodium hydroxide (NaOH, Sigma-Aldrich) to 400 mM. Final concertation of NaOH in sulfadiazine dilutions was not higher than 2.5%. Ready solution sulfadiazine and trimethoprim in weight ratio 5:1 (Sul-Tridin 24%, 200 mg/mL [800 mM] + 40 mg/mL [137.78 mM]– ScanVet Poland). Dilution of the all compounds and drugs were freshly prepared before the cells were exposed in appropriate medium.
# [3] = test system: T. gondii tachyzoites (RH strain); test: In vitro anti-T. gondii activity, [3H]-uracil incorporation assay in infected Hs27 cells; type: cell-based, Toxoplasma gondii; settings: for IC50: Toxoplasma gondii, T. gondii RH tachyzoites proliferation in Hs27 cells, na = not active in the tested concentration range; for SR (selectivity ratio): ratio of CC50 (L929) to IC50 (T. gondii); for inhibition of proliferation, fold better (lower IC50) than sulfadiazine: relative to sulfadiazine; for inhibition of proliferation, fold better than sulfadiazine + trimethoprim (5:1): relative to sulfadiazine + trimethoprim (5:1)
Compound,CC50 at 24 h [1] [µM],melting point [°C],solubility under the protocol conditions [2],IC50 [3] [µM],SR (selectivity ratio) [3],"inhibition of proliferation, fold better (lower IC50) than sulfadiazine [3]","inhibition of proliferation, fold better than sulfadiazine + trimethoprim (5:1) [3] [fold]"
"CCOc1cc(C=NN=C2SC(CC(=O)O)C(=O)N2c2ccccc2)ccc1O (stereo not drawn) [Compound 78, [2-{[(3-Ethoxy-4-hydroxyphenyl)methylidene]hydrazinylidene}-4-oxo-3-phenyl-1,3-thiazolidin-5-yl]acetic acid]",≥ 1000,224 to 226,,,,,
"O=C(O)CC1SC(=NN=Cc2ccc(O)c(Cl)c2)N(c2ccccc2)C1=O (stereo not drawn) [Compound 79, [2-{[(3-Chloro-4-hydroxyphenyl)methylidene]hydrazinylidene}-4-oxo-3-phenyl-1,3-thiazolidin-5-yl]acetic acid]",≥ 1000,244 to 246,,,,,
"O=C(O)CC1SC(=NN=Cc2ccc(O)c(Br)c2)N(c2ccccc2)C1=O (stereo not drawn) [Compound 80, [2-{[(3-Bromo-4-hydroxyphenyl)methylidene]hydrazinylidene}-4-oxo-3-phenyl-1,3-thiazolidin-5-yl]acetic acid]",≥ 1000,252 to 254,,,,,
"O=C(O)CC1SC(=NN=Cc2ccccc2O)N(c2ccc(Cl)cc2)C1=O (stereo not drawn) [Compound 81, [3-(4-Chlorophenyl)-2-{[(2-hydroxyphenyl)methylidene]hydrazinylidene}-4-oxo-1,3-thiazolidin-5-yl]acetic acid]",,234 to 236,insoluble,,,,
"O=C(O)CC1SC(=NN=Cc2cccc(O)c2)N(c2ccc(Cl)cc2)C1=O (stereo not drawn) [Compound 82, [3-(4-Chlorophenyl)-2-{[(3-hydroxyphenyl)methylidene]hydrazinylidene}-4-oxo-1,3-thiazolidin-5-yl]acetic acid]",656,226 to 228,,263,2.49,,
"O=C(O)CC1SC(=NN=Cc2ccc(O)cc2)N(c2ccc(Cl)cc2)C1=O (stereo not drawn) [Compound 83, [3-(4-Chlorophenyl)-2-{[(4-hydroxyphenyl)methylidene]hydrazinylidene}-4-oxo-1,3-thiazolidin-5-yl]acetic acid]",906,234 to 235,,271,3.34,,
"COc1cc(C=NN=C2SC(CC(=O)O)C(=O)N2c2ccc(Cl)cc2)ccc1O (stereo not drawn) [Compound 84, [3-(4-Chlorophenyl)-2-{[(4-hydroxy-3-methoxyphenyl)methylidene]hydrazinylidene}-4-oxo-1,3-thiazolidin-5-yl]acetic acid]",827,254 to 256,,220,3.76,,
CCOc1cc(C=NN=C2SC(CC(=O)O)C(=O)N2c2ccc(Cl)cc2)ccc1O (stereo not drawn) [Compound 85],759,224 to 226,,165,4.59,,
"O=C(O)CC1SC(=NN=Cc2ccc(O)c(Cl)c2)N(c2ccc(Cl)cc2)C1=O (stereo not drawn) [Compound 86, [2-{[(3-Chloro-4-hydroxyphenyl)methylidene]hydrazinylidene}-3-(4-chlorophenyl)-4-oxo-1,3-thiazolidin-5-yl]acetic acid]",≥ 1000,256 to 257,,178,≥5.63,,
"O=C(O)CC1SC(=NN=Cc2ccc(O)c(Br)c2)N(c2ccc(Cl)cc2)C1=O (stereo not drawn) [Compound 87, [2-{[(3-Bromo-4-hydroxyphenyl)methylidene]hydrazinylidene}-3-(4-chlorophenyl)-4-oxo-1,3-thiazolidin-5-yl]acetic acid]",425,254 to 255,,116,3.66,about 90 fold,
"COc1cc(C=NN=C2SC(CC(=O)O)C(=O)N2c2ccc(Cl)cc2Cl)ccc1O (stereo not drawn) [Compound 88, [3-(2,4-Dichlorophenyl)-2-{[(4-hydroxy-3-methoxyphenyl)methylidene]hydrazinylidene}-4-oxo-1,3-thiazolidin-5-yl]acetic acid]",566,226 to 228,,129,4.37,about 90 fold,
"COC(=O)C=C1SC(=NN=Cc2ccccc2O)N(c2ccccc2)C1=O [Compound 89, Methyl [2-{[(2-hydroxyphenyl)methylidene]hydrazinylidene}-4-oxo-3-phenyl-1,3-thiazolidin-5-ylidene]acetate]",304,242 to 244,,,,,
"COC(=O)C=C1SC(=NN=Cc2cccc(O)c2)N(c2ccccc2)C1=O [Compound 90, Methyl [2-{[(3-hydroxyphenyl)methylidene]hydrazinylidene}-4-oxo-3-phenyl-1,3-thiazolidin-5-ylidene]acetate]",234,236 to 238,,,,,
"COC(=O)C=C1SC(=NN=Cc2ccc(O)cc2)N(c2ccccc2)C1=O [Compound 91, Methyl [2-{[(4-hydroxyphenyl)methylidene]hydrazinylidene}-4-oxo-3-phenyl-1,3-thiazolidin-5-ylidene]acetate]",493,222 to 224,,92.9,5.31,,
"COC(=O)C=C1SC(=NN=Cc2ccc(O)c(OC)c2)N(c2ccccc2)C1=O [Compound 92, Methyl [2-{[(4-hydroxy-3-methoxyphenyl)methylidene]hydrazinylidene}-4-oxo-3-phenyl-1,3-thiazolidin-5-ylidene]acetate]",486,210 to 212,,180,2.69,,
"CCOc1cc(C=NN=C2SC(=CC(=O)OC)C(=O)N2c2ccccc2)ccc1O [Compound 93, Methyl [2-{[(3-ethoxy-4-hydroxyphenyl)methylidene]hydrazinylidene}-4-oxo-3-phenyl-1,3-thiazolidin-5-ylidene]acetate]",463,190 to 192,,191,2.42,,
"COC(=O)C=C1SC(=NN=Cc2ccc(O)c(Cl)c2)N(c2ccccc2)C1=O [Compound 94, Methyl [2-{[(3-chloro-4-hydroxyphenyl)methylidene]hydrazinylidene}-4-oxo-3-phenyl-1,3-thiazolidin-5-ylidene]acetate]",474,238 to 240,,27.7,17.07,,18
"COC(=O)C=C1SC(=NN=Cc2ccc(O)c(Br)c2)N(c2ccccc2)C1=O [Compound 95, Methyl [2-{[(3-bromo-4-hydroxyphenyl)methylidene]hydrazinylidene}-4-oxo-3-phenyl-1,3-thiazolidin-5-ylidene]acetate]",428,236 to 238,,28.3,15.11,,18
"CCOc1cc(C=NN=C2SC(=CC(=O)OC)C(=O)N2c2ccccc2Cl)ccc1O [Compound 96, Methyl [3-(2-chlorophenyl)-2-{[(3-ethoxy-4-hydroxyphenyl)methylidene]hydrazinylidene}-4-oxo-1,3-thiazolidin-5-ylidene]acetate]",,216 to 218,insoluble,,,,
"COC(=O)C=C1SC(=NN=Cc2ccccc2O)N(c2ccc(Cl)cc2)C1=O [Compound 97, Methyl [3-(4-chlorophenyl)-2-{[(2-hydroxyphenyl)methylidene]hydrazinylidene}-4-oxo-1,3-thiazolidin-5-ylidene]acetate]",,214 to 216,insoluble,,,,
"COC(=O)C=C1SC(=NN=Cc2cccc(O)c2)N(c2ccc(Cl)cc2)C1=O [Compound 98, Methyl [3-(4-chlorophenyl)-2-{[(3-hydroxyphenyl)methylidene]hydrazinylidene}-4-oxo-1,3-thiazolidin-5-ylidene]acetate]",167,222 to 224,,,,,
"COC(=O)C=C1SC(=NN=Cc2ccc(O)cc2)N(c2ccc(Cl)cc2)C1=O [Compound 99, Methyl [3-(4-chlorophenyl)-2-{[(4-hydroxyphenyl)methylidene]hydrazinylidene}-4-oxo-1,3-thiazolidin-5-ylidene]acetate]",230,250 to 251,,,,,
"Nc1ccc(S(=O)(=O)Nc2ncccn2)cc1 [Sulfadiazine, 4-amino-N-(2-pyrimidinyl)benzenesulfonamide, reference compound]",≥ 10000,,,10900,≥0.92,,
